According to ChEMBL document CHEMBL1155316, “Benzo[d]imidazole inhibitors of Coactivator Associated Arginine Methyltransferase 1 (CARM1)--Hit to Lead studies” (Bioorg Med Chem Lett, 2009):
Blank lines part the entries; values can stand above or below the compound they belong to. Active and inactive are the calls of the source. The rule behind the calls is not given here.

How the values were obtained:
[1] = target: T1, Histone-arginine methyltransferase CARM1 (Homo sapiens, UniProt Q86X55); assay: Inhibition of human CARM1 assessed as inhibition of histone3 methylation
T1 sequence (Q86X55 whole entry): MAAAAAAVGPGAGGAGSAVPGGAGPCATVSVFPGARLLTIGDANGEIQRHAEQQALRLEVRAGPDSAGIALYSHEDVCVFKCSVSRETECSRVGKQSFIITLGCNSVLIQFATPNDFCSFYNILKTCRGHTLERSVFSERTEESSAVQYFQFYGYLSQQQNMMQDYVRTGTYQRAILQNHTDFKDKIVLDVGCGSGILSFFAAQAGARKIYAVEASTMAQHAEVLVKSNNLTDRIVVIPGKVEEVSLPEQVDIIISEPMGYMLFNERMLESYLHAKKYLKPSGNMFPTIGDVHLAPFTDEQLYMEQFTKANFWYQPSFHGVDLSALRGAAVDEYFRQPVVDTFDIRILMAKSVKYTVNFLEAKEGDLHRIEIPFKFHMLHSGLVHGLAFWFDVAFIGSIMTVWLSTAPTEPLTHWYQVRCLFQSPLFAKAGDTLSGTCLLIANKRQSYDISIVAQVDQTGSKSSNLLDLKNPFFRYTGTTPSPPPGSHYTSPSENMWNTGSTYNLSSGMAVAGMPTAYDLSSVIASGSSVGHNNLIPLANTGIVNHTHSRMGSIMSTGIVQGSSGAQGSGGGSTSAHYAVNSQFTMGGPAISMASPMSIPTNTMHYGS

[2] = target: T2, Histone-arginine methyltransferase CARM1 (Homo sapiens) (UniProt Q86X55); assay: Inhibition of human CARM1 assessed as inhibition of PABP methylation
T2 sequence (whole entry): T1 sequence (Q86X55 whole entry)

[3] = target: T2, Histone-arginine methyltransferase CARM1 (Homo sapiens); assay: Inhibition of human CARM1 assessed as inhibition of HuR methylation
[4] = target: Protein arginine N-methyltransferase 3 (Homo sapiens, UniProt O60678); assay: Inhibition of PRMT3
[5] = target: Protein arginine N-methyltransferase 1 (Homo sapiens, UniProt Q99873); assay: Inhibition of PRMT1
Chain of Protein arginine N-methyltransferase 1 (Q99873 whole entry): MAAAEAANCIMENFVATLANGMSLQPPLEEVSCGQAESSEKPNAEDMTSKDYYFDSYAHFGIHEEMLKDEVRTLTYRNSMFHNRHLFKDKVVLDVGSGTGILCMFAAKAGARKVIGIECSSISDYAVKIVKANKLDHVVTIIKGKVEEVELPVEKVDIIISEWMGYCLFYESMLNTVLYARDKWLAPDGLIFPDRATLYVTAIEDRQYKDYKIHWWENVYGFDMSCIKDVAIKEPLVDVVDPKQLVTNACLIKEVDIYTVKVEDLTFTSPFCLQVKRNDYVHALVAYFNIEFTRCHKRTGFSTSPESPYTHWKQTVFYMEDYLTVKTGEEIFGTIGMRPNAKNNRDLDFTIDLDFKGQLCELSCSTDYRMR

Chain of Protein arginine N-methyltransferase 3 (O60678 whole entry): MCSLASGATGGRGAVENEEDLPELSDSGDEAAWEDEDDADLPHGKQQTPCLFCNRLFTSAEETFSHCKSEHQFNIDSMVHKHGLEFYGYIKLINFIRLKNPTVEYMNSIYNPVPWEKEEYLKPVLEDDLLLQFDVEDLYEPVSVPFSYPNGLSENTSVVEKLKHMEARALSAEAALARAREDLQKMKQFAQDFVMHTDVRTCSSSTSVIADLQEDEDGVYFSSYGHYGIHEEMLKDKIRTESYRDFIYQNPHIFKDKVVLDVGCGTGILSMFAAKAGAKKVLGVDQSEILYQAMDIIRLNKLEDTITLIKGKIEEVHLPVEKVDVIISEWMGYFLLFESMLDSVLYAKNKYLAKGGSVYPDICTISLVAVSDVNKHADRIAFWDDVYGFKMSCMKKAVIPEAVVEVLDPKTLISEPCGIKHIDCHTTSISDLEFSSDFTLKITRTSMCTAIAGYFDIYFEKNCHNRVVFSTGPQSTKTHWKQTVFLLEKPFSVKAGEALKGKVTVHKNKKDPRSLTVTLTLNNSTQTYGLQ

- IC50 [1]: > 30 µM
Structure (SMILES): CN[C@H](C)CN1CCC(c2cc(C)c3nc(-c4cccnc4OC)[nH]c3c2)CC1

- Activity [2]: Active
- Activity [3]: Active
Structure (SMILES): CNCCN1CCC(c2cc(C)c3[nH]c(-c4c(OC)cccc4OC)nc3c2)CC1

The next lines start with the compound.

Structure (SMILES): C[C@H](N)C(=O)NCc1cccc(-n2nc(C(F)(F)F)cc2-c2nnc(-c3cccc4ncsc34)o2)c1
- IC50 [1]: 0.04 µM

Structure (SMILES): CN[C@@H](C)CN1CCC(c2cc(C)c3nc(-c4cccnc4OC)[nH]c3c2)CC1
- IC50 [1]: > 30 µM

Structure (SMILES): CNCCN1CCC(c2cc(C)c3nc(-c4c(OC)cccc4OC)[nH]c3c2)CC1
- IC50 [4]: > 25 µM
- IC50 [5]: > 25 µM
